Where “and” joins values, the source holds several entries; their conditions need not be identical. Equal entries are not always repeated.
What was measured:
mouse and rat = assay: Oral administration of ascochlorin to rodents; format: in vivo
Excerpt: These effects make ascochlorin adequate as a remedy for insulin resistance syndrome. In animal experiments, however, the anorexic effect is similar to the effect of enhancing the action of insulin, which makes it highly difficult to evaluate the drug effect as an insulin enhancing agent. Thus, attempts were made to synthesis derivatives having a relatively weak anorexic effect by synthesizing various derivatives through the modification of the molecular structure of ascochlorin.

Japanese quails = assay: Inhibition of arteriosclerosis in Japanese quails fed 1% cholesterol feed; format: in vivo, Japanese quail; design: key to Atheroma formation in arcuate aorta, grade of individual birds: 0: no atheroma.; I: coated with atheroma at a ratio of 1 to 10% of the total area.; II: coated with atheroma at a ratio of 11 to 40% of the total area.; III: coated with atheroma at a ratio of 41 to 70% of the total area.; IV: coated with atheroma at a ratio of 71 to 100% of the total area; conditions: 9 months; for Atheroma formation in arcuate aorta, grade of individual birds: individuals I-VIII; for decrease of serum cholesterol level / decrease of serum neutral fat level: vs high cholesterol feed control; for Serum neutral fat / Serum total cholesterol: Mean ± SE
Protocol: When fed with a high fat diet, birds also show the onset of arteriosclerosis within a short period of time. Then 32 adult Japanese quails aged about 30 days were divided into 4 groups at random. […] The feed was prepared by adding 1% of cholesterol to a powdery protein-rich standard fed for chick and molding the mixture into pellets. Compound-6 was added in an amount of 0.16% or 0.0025% to the powdery feed and then the mixture was molded into pellets. The experiment was carried out for 9 months. During this period, the birds were allowed to take the feed and drinking water ad libitum. The feed employed in this experiment contained less fat, compared with the feed employed in the experiments with white rabbits, and was free from bile acid promoting the absorption of cholesterol from the digestive tract.
After 9 months, blood was collected and the serum total cholesterol level and the neutral fat level were measured. […] Each bird was dissected and the aorta was taken out. Then the severity was scored in 5 grades based on the ratio of atheroma to the total endosporium area and thickening of the arterial wall.

male Wistar rats = assay: Sterol balance and bile acid excretion in rats; format: in vivo, rat; conditions: 10 mg/kg oral once a day
Protocol: Feed-origin cholesterol and neutral sterol and acidic sterol in the feces of rats, to which the compounds of the present invention had been administered, were determined to monitor sterol balance and changes in the bile acid composition in feces. […] Further, the bile was sampled with the passage of time from rats having been subjected to cholangiostomy and bile acids thereof were determined. […] Male Wistar rats weighting about 250 g were divided into groups each having 6 to 8 animals. […] […] The feces were collected on the days 6 and 10. Then sterols were extracted therefrom in a conventional manner, acidic sterols and neutral sterols were determined. On the other hand, cholesterol in the feed was also determined so as to calculate the amount of feed-origin sterol.

[1] = tested on: patients suffered from noninsulin dependent diabetes (type II); assay: Phase II clinical test; format: in vivo, human; conditions: for Fasting blood glucose level, Decrease / Serum total cholesterol level, Decrease / Fasting blood glucose level / Serum total cholesterol level: 360 mg/day; for Fasting blood glucose level / Serum total cholesterol level: n = 30, Mean ± SE; for Boredom No, number of patients / Boredom Yes, number of patients: total 15; for Neuralgia No, number of patients / Neuralgia Yes, number of patients: total 16; for Feebleness No, number of patients / Feebleness Yes, number of patients: total 25
Protocol: A phase II clinical test of Compound-6 involving 30 patients suffered from noninsulin dependent diabetes (type II) was carried out. Compound-6 was administered in a daily dose of 6 mg/kg (i.e., administration of two tablets weighing 60 mg after each meal). The administration was continued for 12 weeks.
The facts clarified by this test are as follows.
The 30 patients with type II diabetes were inquired about thirsty and evaluated in 4 grades, namely, (+++) very strongly thirsty; (++) strongly thirsty; (+) thirsty; and (−) not thirsty. […] The treatment ratio amounted to 100%.

db/db mice = assay: Calcium metabolism in db/db mice; format: in vivo, mouse; conditions: administration for 1 week
Excerpt: RXR also forms a heterodimer with a nuclear receptor, VDR, which acts with active vitamin D3 (1a,25-dihydrocyvitamin D3) as a ligand. However, no study has been made so far how the formation of this heterodimer means in vivo. Thus the effect of this heterodimer on gene transcription and, in its turn, its physiological meaning still remain unknown. Activated vitamin D3 is essential for bone development and growth in children. Also, it is essential for preventing osteoporosis and bone fracture in aged and sick persons. In spite of such meaningful effects, studies have not been conducted to clarify the function of the heterodimer of VDR with RXR. The inventors studied calcium metabolism in db/db mice and the effect of Compound-14 on the calcium metabolism. This study was partly reported in 1992 (Tomoyoshi Hosokawa, Nogei Kagaku Kai-shi (J. Agr. Chem.), 66:1221-1226, 1992). Compared with normal litter of the same age, db/db mice show abnormally high levels of urinary calcium, blood calcium, blood calcitonin and parathyroid hormone. […] By feeding db/db mice over a long time of period (4 weeks), it was found out that these animals suffered form a decrease in bone mineral density compared with normal litter of the same age. […]

3-[5-[l(R),2(S),6(S)-trimethyl-3-oxocylohexyl]-3-methyl-2,4-pentadienyl]-2,4-dihydroxy-5-chloro-6-methylbenzaldehyde [Compound-1]
effects of oral administration (mouse and rat; mouse and rat): anorexic effect as well as effects of lowering the blood glucose level, the serum lipid level and the serum insulin level
blood pressure (mouse and rat; oral, anesthetized rats and hypertensive rats): potent effect of lowering blood pressure

COc1c(Cl)c(C)c(C=O)c(O)c1C/C=C(C)/C=C/[C@@]1(C)[C@H](C)CCC(=O)[C@@H]1C [Compound-6, 4-O-methylASC]
occurrence of atheroma (Japanese quails; High-dose group (0.16%)): no atheroma
Atheroma formation in arcuate aorta, grade of individual birds (Japanese quails; High-dose group (0.16%)): 0
Atheroma severity score, Average (Japanese quails; High-dose group (0.16%), n = 8): 0.00 ± 0.00
decrease of serum cholesterol level (Japanese quails; High-dose group): 40%
decrease of serum neutral fat level (Japanese quails; High-dose group): 40%
Serum neutral fat, change vs control (Japanese quails; High-dose, 0.16% in feed): −40.0%
Serum total cholesterol, change vs control (Japanese quails; High-dose, 0.16% in feed): −40.4%
Serum neutral fat (Japanese quails; High-dose, 0.16% in feed): 392.6 ± 46.5 mg/dL
Serum total cholesterol (Japanese quails; High-dose, 0.16% in feed): 1200 ± 136 mg/dL
fraction of the birds with atheroma (Japanese quails; Low-dose group (0.0025%)): ½
Atheroma formation in arcuate aorta, grade of individual birds (Japanese quails; Low-dose group (0.0025%)): 0 (4×) and I (coated with atheroma at a ratio of 1 to 10% of the total area.) (4×)
decrease of serum cholesterol level (Japanese quails; Low-dose group): 25.5%
decrease of serum neutral fat level (Japanese quails; Low-dose group): 21.6%
Serum neutral fat, change vs control (Japanese quails; Low-dose, 0.0025% in feed): −21.6%
Serum total cholesterol, change vs control (Japanese quails; Low-dose, 0.0025% in feed): −25.5%
Serum neutral fat (Japanese quails; Low-dose, 0.0025% in feed): 513.1 ± 39.2 mg/dL
Serum total cholesterol (Japanese quails; Low-dose, 0.0025% in feed): 1499 ± 120 mg/dL
Serum total cholesterol (male Wistar rats; Standard feed): 65.0 ± 2.98 mg/dL
Sterol Excretion (male Wistar rats; Standard feed): 10.81 mg/200 g wt.
Sterol balance (male Wistar rats; Standard feed): -2.26 mg
Serum total cholesterol (male Wistar rats; feed containing cholesterol): 77.0 ± 2.19 mg/dL
Sterol Excretion (male Wistar rats; feed containing cholesterol): 275.52 mg/200 g wt.
Sterol balance (male Wistar rats; feed containing cholesterol): +25.93 mg
Fasting blood glucose level, Decrease ([1]; 4th week): 12.37%
Serum total cholesterol level, Decrease ([1]; 4th week): 16.6%
Fasting blood glucose level ([1]; 4th week): 165 ± 4.3 mg/dL
Serum total cholesterol level ([1]; 4th week): 265 ± 4.4 mg/dL
Boredom No, number of patients ([1]; 4th week): 5
Boredom Yes, number of patients ([1]; 4th week): 10
Neuralgia No, number of patients ([1]; 4th week): 9
Neuralgia Yes, number of patients ([1]; 4th week): 7
Feebleness No, number of patients ([1]; 4th week): 10
Feebleness Yes, number of patients ([1]; 4th week): 15
Fasting blood glucose level, Decrease ([1]; 8th week): 15.45%
Serum total cholesterol level, Decrease ([1]; 8th week): 24.3%
Fasting blood glucose level ([1]; 8th week): 159 ± 2.4 mg/dL
Serum total cholesterol level ([1]; 8th week): 240 ± 4.4 mg/dL
Boredom No, number of patients ([1]; 8th week): 13
Boredom Yes, number of patients ([1]; 8th week): 2
Neuralgia No, number of patients ([1]; 8th week): 10
Neuralgia Yes, number of patients ([1]; 8th week): 6
Feebleness No, number of patients ([1]; 8th week): 19
Feebleness Yes, number of patients ([1]; 8th week): 6
Fasting blood glucose level, Decrease ([1]; 12th week): 18.05%
Serum total cholesterol level, Decrease ([1]; 12th week): 27.2%
Fasting blood glucose level ([1]; 12th week): 154 ± 4.4 mg/dL
Serum total cholesterol level ([1]; 12th week): 231 ± 4.4 mg/dL
Boredom No, number of patients ([1]; 12th week): 15
Boredom Yes, number of patients ([1]; 12th week): 0
Neuralgia No, number of patients ([1]; 12th week): 14
Neuralgia Yes, number of patients ([1]; 12th week): 2
Feebleness No, number of patients ([1]; 12th week): 24
Feebleness Yes, number of patients ([1]; 12th week): 1
thirst, treatment ratio ([1]; 30 patients, 12 weeks): 100%
glucose tolerance (50 g of glucose orally loaded, fasting) ([1]; compared with the data before the administration): significantly ameliorated
blood pressure of patients with hypertension (7) or borderline hypertension (17) ([1]; human, in vivo): significantly lowered
lowering the serum neutral fat level ([1]; human, in vivo): little effect
urinary glucose, urine collected for 24 hours ([1]; human, in vivo): significantly reduced

CC(/C=C/[C@@]1(C)[C@H](C)CCC(=O)[C@@H]1C)=C\Cc1c(O)c(C=O)c(C)c(Cl)c1OCC(=O)O [Compound-14, 4-O-carboxymethylASC]
urinary calcium, blood calcium and calcitonin levels (db/db mice): significantly lowered
